Several values for one entry are separate records, joined by “and”; a condition that tells them apart may be missing. Identical values can stand only once.
Assays:
microsomal CYP enzymes = test: HLM incubation of MPZ with CYP inhibitors; settings: HLM 0.5 mg/ml, 60 min; for effect of inhibitor on MPZS formation from MPZ / effect of inhibitor on MPZH formation from MPZ (peak area ratio, qualitative): 1 mM ABT; for effect of inhibitor on MPZS formation from MPZ: itraconazole 2.5 µM; for effect of inhibitor on MPZH formation from MPZ (peak area ratio, qualitative): quinidine 1 µM
Method: Initially, two sets of incubations were conducted with HLM (0.5 mg/ml microsomal protein), 1 and 10 μM MPZ, 100 mM KPi buffer (pH 7.4) where one set was in the presence and the other set was in the absence of 1 mM ABT, a non‐specific CYP inhibitor for 60 min. This allowed the assessment of total CYP contribution for MPZ metabolism. Then, CYP‐specific chemical inhibitors were used to assess the contribution of individual major CYP‐isoforms where HLM were incubated with 1 or 10 μM MPZ in the presence and in the absence of each CYP specific inhibitor at 37°C for 60 min. […] Parallel incubation with seven CYP specific probe substrates (phenacetin for CYP1A2, bupropion for CYP2B6, paclitaxel for CYP2C8, diclofenac for CYP2C9, S‐mephenytoin for CYP2C19, dextromethorphan for CYP2D6 and midazolam for CYP3A4/5) were included in as positive controls. For negative control reaction, MPZ was incubated at 37°C in duplicate in a reaction mixture devoid of NADPH. All other procedures were the same as described previously.
LC separation conditions were developed for MPZ and its metabolites (MPZA and MPZS), 7‐hydroxycoumarin, each metabolite of CYP probe substrate, benzydamine N‐oxide, and phthalazine. The LC–MS/MS system consisted of a Shimadzu Nexera X2 LC‐30 UPLC system (Shimadzu Corporation), and an API 4000 triple quadrupole mass spectrometer (SCIEX) was used for analysis. All analytes were analyzed using electrospray ionization (ESI) in positive ion mode except for 7‐EC, which used negative ion mode. The LC–MS/MS system was controlled by Analyst software (version 1.6.1, SCIEX).
For each analytical method, a calibration curve was generated for the quantification of MPZ and its two metabolites (MPZA and MPZS). […] PAR was also used for all positive control compounds.

[1] = system: human liver microsomal amidase; test: Incubations with heat-treated HLM for microsomal hydrolase/amidase activity, with and without BNPP; assay type: in vitro ADME; settings: 10 µM MPZ, HLM, 60 min
Method: Prior to the reaction for amidase activity, the reaction mixture containing KPi buffer (pH 7.4, 8.4, or 9.4) and HLM was pre‐incubated at 50°C for 5 min to inactivate CYP and FMO activities in HLM. The mixture was placed on ice to cool down. An aliquot was taken out which was considered as t = 0 min incubation. Then 10 µM MPZ was added into the remaining mixture and incubated at 37°C on an orbital shaker for 60 min. A parallel set of incubations was conducted with 10 µM MPZ in the presence at 2 and 16 µM, of BNPP (a known inhibitor of amidase). All reactions were in triplicate. The total percentage of organic solvent in the incubation mixture was ≤0.1%. The reactions were terminated by the addition of chilled acetonitrile: methanol, 90:10, (v/v). The samples were vortex‐mixed and stored at ≤−70°C and were subjected analyzed by LC–MS/MS.

[2] = Incubation of MPZ with pooled human liver microsomes (disappearance, metabolite formation); assay type: in vitro ADME; settings: metopimazine incubation in human liver microsomes, full scan LC–MS
Method: To conduct the metabolic incubation in liver microsomes in the linear range, protein concentration and the reaction time were optimized.
PAR was also used for all positive control compounds.
The degree of disappearance of each analyte was evaluated by comparing the PAR of analyte to IS or concentration in different sampling time points to the PAR of time zero, (t = 0, 100%). The percent of parent remaining values were calculated according to the following equation: %parentremaining=(meanconcentrationorPARateachsamplingtimepoint/meanconcentrationorPARoftimezero)×100

CYP3A4 = molecular target: T1, CYP3A4 (Homo sapiens, UniProt P08684); test: Incubation of MPZ with recombinant CYP isoforms: CYP3A4; assay type: in vitro ADME; settings: 1 µM MPZ, 60 min
T1 construct: purchased Corning Inc
Description: (§1) All other procedures were the same as described previously.

[3] = Clinical study NG100-101: plasma pharmacokinetics of metopimazine and metabolites after a single oral 60 mg dose; assay type: in vivo, healthy adult subjects (human); settings: for % Drug‐related material MPZS: based on AUClast
Method: The clinical study was conducted at Biotrial Rennes, in accordance with the Declaration of Helsinki. The study (NG100‐101) was a double‐blind, placebo‐ controlled, ascending single‐ and multiple‐dose study of the safety, tolerability, and pharmacokinetics of metopimazine administered orally to healthy adult subjects. The study protocol, informed consent form, and appropriate related documents were approved by the institutional review board, and all subjects provided written informed consent prior to participation in the study. […] In the morning, after at least 10 h of fasting overnight, eight healthy adult subjects (male or female aged 18 to 45), were orally administered metopimazine (or a matching placebo). […] Blood samples were collected at the following time points: predose and 0.25, 0.5, 0.75, 1, 1.25, 1.5, 2, 3, 4, 6, 8, 12, 18, and 24 h postdose; plasma samples were obtained by centrifugation of the blood samples. A comprehensive safety and pharmacokinetic analysis was performed for each cohort for the SAD and MAD parts of the study and will be presented elsewhere. A fit‐for‐purpose discovery method was used to analyze 4 subjects from the highest single dosed cohort for the presence of metabolites. Plasma concentrations of metopimazine, metopimazine acid and metopimazine sulfoxide were quantified using LC–MS/MS methods. Venous blood samples (6 ml) for the determination of plasma concentrations of MPZ and metabolites (MPZA and MPZS) were drawn by direct venipuncture or via an intravenous catheter into K2EDTA Vacutainer® tubes. It was important to avoid hemolysis during blood collection. After collection, the blood samples were centrifuged within 60 min, at 3000 rotations per minute for 10 min at 5°C. The resulting plasma was separated into 2 equal aliquots of 1000 µl (aliquots A & B) and transferred to polypropylene tubes, which were labeled, frozen within 120 min of blood collection and stored at –70°C until required for bioanalysis. Immediately prior to bioanalysis, samples were thawed and a 200 µl aliquots were removed and analytes extracted using acetonitrile protein precipitation. The extracted samples were analyzed twice, once for quantification of MPZ and MPZA and again for MPZS quantification as described below. An MRM LC–MS/MS method was developed for MPZ and metopimazine acid (MPZA) in rat, dog, and human plasma. The method was run in reverse phase in positive ion mode. […] D6‐isotopically labeled internal standards were used for each analyte. The following m/z transitions were monitored: metopimazine 446.3 → 141.1 and metopimazine acid 447.2 → 142.1. […] An MRM LC–MS/MS method was developed to look for metopimazine sulfoxide (MPZS) in human plasma. The method was run in reverse phase in positive ion mode. The system was identical to what was described above except that a slightly longer column was used, a Supelco Discovery HS F5 100 × 4.0 mm (3 µm) column (Sigma‐Aldrich). A D6‐isotopically labeled internal standards was used for MPS and the m/z transition monitored was 462.3 → 98.1. A calibration curve was generated for the quantification of MPZS in human plasma. Noncompartmental Pharmacokinetics analysis was performed in Phoenix 64 Winnonlin version 8.1.

CYP3A5 = molecular target: T2, CYP3A5 (Homo sapiens, UniProt P20815); test: Incubation of MPZ with recombinant CYP isoforms: CYP3A5; assay type: in vitro ADME; settings: 1 µM MPZ, 60 min
T2 construct: purchased Corning Inc
Description: as §1

microsomal FMOs = test: Incubation of MPZ with HLM for FMO, with and without methimazole; assay type: in vitro ADME, human; settings: 1 mM methimazole, pH 8.4, NADPH, 60 min
Method: MPZ, at 1.0 and 10.0 µM, was incubated with HLM or HKM to determine the contribution of microsomal FMOs on the metabolism of MPZ.
A reaction mixture containing KPi buffer (pH 8.4), HLM or HKM (0.5 mg/ml protein) and MPZ (1.0 and 10.0 µM) was pre‐incubated for 3–5 min at 37°C. The reaction was initiated by the addition of NADPH into the reaction mixture. The reaction was conducted for 0 and 60 min. A positive control (benzydamine, 100 µM) was incubated in duplicate for 0 and 20 min. Parallel incubation was conducted by adding 1 mM methimazole, a non‐specific FMO inhibitor, under identical conditions. Heat‐inactivated microsomes (50°C for at least 5 min) was incubated under identical conditions negative control. All other procedures were the same as described previously.

[4] = 4 subjects, single oral 60 mg MPZ dose
[5] = plasma, individual subjects, single oral 60 mg MPZ dose

T1 sequence (P08684 whole entry, canonical isoform): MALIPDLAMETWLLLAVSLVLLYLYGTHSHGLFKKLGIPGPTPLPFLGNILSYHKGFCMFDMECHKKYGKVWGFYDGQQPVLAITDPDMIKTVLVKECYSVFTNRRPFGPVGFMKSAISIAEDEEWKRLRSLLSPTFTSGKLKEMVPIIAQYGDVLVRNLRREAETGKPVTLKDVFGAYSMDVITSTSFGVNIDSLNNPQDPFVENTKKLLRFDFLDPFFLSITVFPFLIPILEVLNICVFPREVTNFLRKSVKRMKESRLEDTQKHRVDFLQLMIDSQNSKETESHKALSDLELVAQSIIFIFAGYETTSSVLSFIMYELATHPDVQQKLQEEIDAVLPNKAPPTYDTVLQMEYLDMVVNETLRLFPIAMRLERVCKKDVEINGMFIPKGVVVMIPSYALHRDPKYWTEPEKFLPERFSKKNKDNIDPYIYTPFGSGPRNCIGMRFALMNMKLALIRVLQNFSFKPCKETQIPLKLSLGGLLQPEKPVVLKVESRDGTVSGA
T2 sequence (P20815 whole entry, canonical isoform): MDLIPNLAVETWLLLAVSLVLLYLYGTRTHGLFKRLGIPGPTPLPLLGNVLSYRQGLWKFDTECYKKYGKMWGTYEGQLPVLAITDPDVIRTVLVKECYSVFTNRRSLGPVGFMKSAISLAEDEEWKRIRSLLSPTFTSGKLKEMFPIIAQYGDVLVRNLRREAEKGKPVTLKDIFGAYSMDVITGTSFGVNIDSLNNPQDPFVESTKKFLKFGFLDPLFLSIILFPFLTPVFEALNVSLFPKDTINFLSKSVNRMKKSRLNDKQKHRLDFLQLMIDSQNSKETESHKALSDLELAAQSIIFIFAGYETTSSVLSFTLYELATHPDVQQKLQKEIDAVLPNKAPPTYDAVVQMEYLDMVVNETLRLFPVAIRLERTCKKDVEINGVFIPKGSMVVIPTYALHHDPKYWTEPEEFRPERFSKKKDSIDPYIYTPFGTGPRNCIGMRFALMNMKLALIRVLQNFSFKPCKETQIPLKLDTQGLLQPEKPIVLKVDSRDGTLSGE

With `Nn1nnc2ccccc21` [1‐ABT, 1‐aminobenzotriazole] the “effect of inhibitor on MPZA formation from MPZ” value (microsomal CYP enzymes; 1 mM ABT or CYP-isoform specific inhibitors) was “no effect on MPZA”, the “effect of inhibitor on MPZS formation from MPZ” value (microsomal CYP enzymes) was “inhibited the formation of MPZS” and the “effect of inhibitor on MPZH formation from MPZ (peak area ratio, qualitative)” value (microsomal CYP enzymes) was “inhibited”.
For `O=[N+]([O-])c1ccc(OP(=O)(O)Oc2ccc([N+](=O)[O-])cc2)cc1` [BNPP, bis‐p‐nitrophenyl phosphate], the “inhibition of MPZA formation” value ([1]; 2 μM BNPP, even at the highest pH) was “at least 97%” and the “inhibition of MPZA formation” value ([1]; 16 μM BNPP, all three pH values (7.4, 8.4, 9.4)) was greater than 99%.
In the case of `CS(=O)(=O)c1ccc2c(c1)N(CCCN1CCC(C(N)=O)CC1)c1ccccc1[S+]2[O-]` (stereo not shown) [MPZS, metopimazine sulfoxide], the “Peak area at time 0” value [2] is reported as 0, the “Peak area at time 90 min” value [2] is reported as 59 and the “metabolite formation by recombinant CYP3A4” value (CYP3A4) is reported as “mainly produced by CYP3A4”. For the same compound, the “quantifiability in plasma at late time points” value [3, 4] was “not quantifiable by 12 h”, the “time of first appearance in plasma” value [3, 4] was 30 to 45 min and the “% Drug‐related material MPZS” value ([3]; individual subjects, single 60 mg dose) was 0.4% and 0.9% and 0.5% and 0.8%. The “% Drug‐related material MPZS” value ([3]; mean of 4 subjects, single 60 mg dose) was 0.7%, the AUC(0-t) ([3]; both sexes, human, plasma, po, 60 mg, plasma, mean of 4 subjects, single oral 60 mg MPZ dose, read-out: MPZS AUClast) was 15.8 ng·h/mL and the Cmax ([3]; both sexes, human, plasma, po, 60 mg, plasma, mean of 4 subjects, single oral 60 mg MPZ dose, read-out: MPZS C max) was 4.9 ng/mL. The “MPZS AUClast” value [3, 5] was 7.6 ng‐h/ml and 25.5 ng‐h/ml and 10.0 ng‐h/ml and 20.1 ng‐h/ml, the “MPZS C max” value [3, 5] was 1.6 ng/mL and 10.2 ng/mL and 3.1 ng/mL and 4.6 ng/mL and the “MPZS T max” value [3, 5] was 4 h and 1.25 h and 1 h. For the same compound, the “percent of total circulating drug‐related material” value ([3]; rough estimate based on AUClast, single 60 mg dose) was “less than 1%” and the “metabolite formation by recombinant CYP3A5” value (CYP3A5) was “not CYP3A5”.
In the case of `CCC(C)n1ncn(-c2ccc(N3CCN(c4ccc(OCC5COC(Cn6cncn6)(c6ccc(Cl)cc6Cl)O5)cc4)CC3)cc2)c1=O` (stereo not shown) [itraconazole], the “effect of inhibitor on MPZS formation from MPZ” value (microsomal CYP enzymes) is reported as “clearly inhibited”.
In the case of `Cn1cc[nH]c1=S` [methimazole], the “effect of FMO inhibitor on MPZA formation in HLM” value (microsomal FMOs) is reported as “not inhibited”.
For `C=C[C@H]1C[N@@]2CC[C@H]1C[C@@H]2[C@@H](O)c1ccnc2ccc(OC)cc12` [quinidine], the “effect of inhibitor on MPZH formation from MPZ (peak area ratio, qualitative)” value (microsomal CYP enzymes) was “inhibited”.

— paper PMC8929364, “Metopimazine is primarily metabolized by a liver amidase in humans” (Pharmacology Research & Perspectives, 2021)
